Values of other authors as cited in PMC4261083, “An atypical residue in the pore of Varroa destructor GABA-activated RDL receptors affects picrotoxin block and thymol modulation” (Insect Biochemistry and Molecular Biology, 2014).

Tested on: Tetranychus RDL receptors
Design: method as in Asahi et al., 2014
Conditions: expressed in Xenopus oocytes, ref Asahi et al., 2014, cited from earlier work

Row | SMILES | Sensitivity of Tetranychus RDL receptors to fipronil | IC50 (read-out: IC50 for block of Tetranychus RDL receptors)
1 | N#Cc1nn(-c2c(Cl)cc(C(F)(F)F)cc2Cl)c(N)c1[S+]([O-])C(F)(F)F (centres unmarked) [fipronil] | resistant | –
2 | Cc1cc(C2=NOC(c3cc(Cl)cc(Cl)c3)(C(F)(F)F)C2)ccc1C(=O)NCC(=O)NCC(F)(F)F (centres unmarked) [fluralaner] | – | ~10 nM
